Results taken from patent publication US6057135A, “Process for manufacturing D-tagatose” (Kraft Foods, Inc., priority 1992, dated 2000).
Each block holds one compound with its values, some of them ahead of it.

Columns and labels:
[1] = molecular target: T1, L-arabinose isomerase (Lactiplantibacillus pentosus, UniProt Q6UA74); assay: L-arabinose isomerase activity assay (cysteine-carbazole ketose determination), enzyme from Lactobacillus pentosus ATCC 8041; type: biochemical; settings: for % Activity with activator (None = 100): metal ion activator, bioconversion of D-galactose; for Enzyme Activity: 10 minutes, 0.1 M L-arabinose or 0.2 M D-galactose as substrate; for total activity, Present Invention Data / activity (10 min.), Present Invention Data: substrate as labelled, propagation 24 hours, 37° C., pH 6.5, BYF 100 medium; for activity (10 min.), Present Invention Data: per g cell mass
T1 construct: whole cells, sonicated cell-free extract or immobilized, from L-arabinose-induced culture
T1 sequence (Q6UA74 1-474): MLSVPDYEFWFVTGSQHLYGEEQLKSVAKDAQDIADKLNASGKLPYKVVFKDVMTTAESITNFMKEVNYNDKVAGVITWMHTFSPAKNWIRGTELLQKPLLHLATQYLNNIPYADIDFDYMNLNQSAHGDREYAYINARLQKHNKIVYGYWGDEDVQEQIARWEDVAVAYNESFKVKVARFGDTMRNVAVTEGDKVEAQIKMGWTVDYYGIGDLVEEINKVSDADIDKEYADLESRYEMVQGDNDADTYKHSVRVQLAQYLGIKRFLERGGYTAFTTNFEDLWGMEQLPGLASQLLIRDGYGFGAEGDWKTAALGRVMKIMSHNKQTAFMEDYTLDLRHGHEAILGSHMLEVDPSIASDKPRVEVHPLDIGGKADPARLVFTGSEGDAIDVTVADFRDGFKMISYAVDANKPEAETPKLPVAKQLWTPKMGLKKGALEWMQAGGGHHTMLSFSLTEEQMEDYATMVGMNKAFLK
Experimental: The activity of L-arabinose isomerase can be assayed based on the appearance of keto-pentose (L-ribulose) or keto-hexose (D-tagatose) after incubation in the presence of the substrate aldo-pentose (L-arabinose) or aldo-hexose (D-galactose), respectively. The keto-pentose or keto-hexose can be measured colorimetrically utilizing cysteine-carbazole sulfuric acid as a reagent. The cysteine-carbazole method is described in, Zacharias Dische, "Color Reaction of Ketoses with Carbazole and Sulfuric Acid", Methods in Carbohydrate Chemistry (1962) page 481 [132]. Samples should be analyzed in duplicate, utilizing one sample as a blank to correct for substances which may interfere with the calorimetric ketose determination.
For purposes of this specification, one unit of L-arabinose isomerase activity is defined as that amount of enzyme which is required to produce one micromole of L-ribulose or D-tagatose from the respective substrates, L-arabinose or D-galactose, following ten minutes of incubation under assay conditions.
Following 24 hours of propagation, the cell mass was harvested and washed with a phosphate or maleate buffer at pH 6.5. The L-arabinose isomerase was extracted from the harvested cells by sonication.
To 1.0 ml of the bioconversion reaction medium (using a dilution factor if needed) the following is added:
0.2 ml of cystein hydrochloride (1.5% in water);
6.0 ml 75% sulfuric acid (450 ml conc. sulfuric acid+190 ml water); and
0.2 ml of 0.12% alcohol solution of carbazole (0.12 gram carbazole in 100 ml 95% ethanol).
The test tubes are incubated for 10 minutes at 57° C. and optical density (O.D.) is read at 540. The D-galactose substrate is used as a blank for reference.
A series of bioconversions were conducted with varied parameters to determine optimum conditions for Lactobacillus pentosus L-arabinose isomerase.

[2] = tested on: L-arabinose isomerase; assay: L-arabinose isomerase bioconversion of D-galactose to D-tagatose, enzyme from Arthrobacter sp. ATCC 21920; type: biochemical; settings: for D-TAGATOSE / O.D. (X - B): 1.67 M D-galactose, 60° C., 120 min.
Experimental: The cultures were screened based on cell propagation on medium #1 of Example 3 in the presence of L-arabinose as a carbon source.
Cells of Arthrobacter sp. ATCC 21920 were propagated on medium #1 of Example 3 in the presence of L-arabinose as a carbon source. Optimum pH, temperature, metal ion and metal ion concentration were evaluated on the cell extract containing L-arabinose isomerase as summarized below.
In the following tests, sample B was comprised of 0.8 ml. D-galactose and 0.2 ml. water and sample X was comprised of 0.8 ml. D-galactose and 0.2 ml. enzyme. The dilution factor for the optical density (O.D.) reading was 200×.

[3] = molecular target: T2, L-arabinose isomerase (Bacillus amyloliquefaciens, UniProt A0A9P1JJ98); assay: L-arabinose isomerase bioconversion of D-galactose to D-tagatose, enzyme from Bacillus amyloliquefaciens IFO 3022; type: biochemical; settings: for D-TAGATOSE / O.D. (X - B): 1.67 M D-galactose, 60° C., 120 min.
T2 construct: crude enzyme
T2 sequence (A0A9P1JJ98 1-499): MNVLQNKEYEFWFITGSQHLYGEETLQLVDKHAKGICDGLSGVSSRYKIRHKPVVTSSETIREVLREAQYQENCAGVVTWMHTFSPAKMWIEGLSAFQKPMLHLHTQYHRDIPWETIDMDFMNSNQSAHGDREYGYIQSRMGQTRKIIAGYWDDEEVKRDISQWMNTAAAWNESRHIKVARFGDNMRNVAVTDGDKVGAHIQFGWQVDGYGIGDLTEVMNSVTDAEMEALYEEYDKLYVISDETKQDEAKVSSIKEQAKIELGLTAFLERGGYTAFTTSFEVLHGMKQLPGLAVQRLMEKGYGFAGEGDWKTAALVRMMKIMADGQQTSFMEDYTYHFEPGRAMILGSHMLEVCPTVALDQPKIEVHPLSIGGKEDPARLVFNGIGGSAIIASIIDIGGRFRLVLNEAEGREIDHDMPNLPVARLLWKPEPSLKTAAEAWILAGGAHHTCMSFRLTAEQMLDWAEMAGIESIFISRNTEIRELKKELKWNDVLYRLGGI
Experimental: Bacillus amyloliquefaciens (previously known as Bacillus subtilis, IFO 3022, was evaluated as a source of L-arabinose isomerase. Cells of the culture were propagated on the same medium as used in Example 1 in the presence of L-arabinose as a carbon source. Optimum pH, temperature, metal ion and metal ion concentration were evaluated as summarized below.
In the following tests, sample B was comprised of 0.8 ml. D-galactose and 0.2 ml. water and sample X was comprised of 0.8 ml. D-galactose an 0.2 ml. enzyme. The dilution factor for the optical density (O.D.) reading was 200×. (The cystein carbazole method was used for the D-tagatose assay.)

[4] = tested on: L-arabinose isomerase; settings: cited from earlier work; for affinity of the isomerase for the sugar: Yamanaka and Wood, 1966
[5] = tested on: L-arabinose-L-ribulose-isomerase; settings: Simpson, 1958; cited from earlier work
[6] = molecular target: T3, L-arabinose isomerase (Mycolicibacterium smegmatis, UniProt Q9RHG2); settings: Izumori et al., 1978; cited from earlier work
T3 construct: L-arabinose isomerases from Mycobacterium smegmatis induced by L-arabinose and D-galactose; host or cells: Mycobacterium smegmatis

[7] = at about 25° C.; cited from earlier work
[8] = 0.005 M metallic ion, O.D. 540, dilution 200×

T3 sequence (Q9RHG2 whole entry): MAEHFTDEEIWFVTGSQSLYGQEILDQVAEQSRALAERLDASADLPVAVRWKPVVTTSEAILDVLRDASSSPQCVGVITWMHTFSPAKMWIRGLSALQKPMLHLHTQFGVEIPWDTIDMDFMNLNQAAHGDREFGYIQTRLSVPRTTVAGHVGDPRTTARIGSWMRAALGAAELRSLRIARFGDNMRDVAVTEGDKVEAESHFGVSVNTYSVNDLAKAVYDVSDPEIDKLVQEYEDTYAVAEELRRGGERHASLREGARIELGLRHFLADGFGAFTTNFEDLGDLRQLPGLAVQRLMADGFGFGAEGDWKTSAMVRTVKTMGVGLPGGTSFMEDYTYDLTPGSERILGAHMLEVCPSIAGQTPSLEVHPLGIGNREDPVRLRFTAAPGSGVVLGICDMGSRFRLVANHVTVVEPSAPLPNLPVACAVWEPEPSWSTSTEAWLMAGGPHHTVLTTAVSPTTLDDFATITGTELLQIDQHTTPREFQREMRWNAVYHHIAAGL

- % Activity with activator (None = 100) [1]: 177%
- D-TAGATOSE ([2]; 0.005 M metallic ion): 0.044 M
- O.D. (X - B) [2, 8]: 0.9574
- D-TAGATOSE ([2]; manganese ion 0.001 M): 0.041 M
- O.D. (X - B) ([2]; manganese ion 0.001 M): 0.8919
- D-TAGATOSE ([2]; manganese ion 0.003 M): 0.035 M
- O.D. (X - B) ([2]; manganese ion 0.003 M): 0.7600
- D-TAGATOSE ([2]; manganese ion 0.005 M): 0.040 M
- O.D. (X - B) ([2]; manganese ion 0.005 M): 0.8848
- D-TAGATOSE ([2]; manganese ion 0.007 M): 0.042 M
- O.D. (X - B) ([2]; manganese ion 0.007 M): 0.9057
- D-TAGATOSE ([2]; manganese ion 0.009 M): 0.051 M
- O.D. (X - B) ([2]; manganese ion 0.009 M): 1.1175
- D-TAGATOSE ([2]; manganese ion 0.011 M): 0.043 M
- O.D. (X - B) ([2]; manganese ion 0.011 M): 0.9333
- D-TAGATOSE ([2]; manganese ion 0.013 M): 0.049 M
- O.D. (X - B) ([2]; manganese ion 0.013 M): 1.0753
- D-TAGATOSE ([3]; 0.005 M metallic ion): 0.035 M
- O.D. (X - B) [3, 8]: 0.7610
- D-TAGATOSE ([3]; manganese ion 0.001 M): 0.036 M
- O.D. (X - B) ([3]; manganese ion 0.001 M): 0.7723
- D-TAGATOSE ([3]; manganese ion 0.003 M): 0.030 M
- O.D. (X - B) ([3]; manganese ion 0.003 M): 0.6441
- D-TAGATOSE ([3]; manganese ion 0.005 M): 0.031 M
- O.D. (X - B) ([3]; manganese ion 0.005 M): 0.6815
- D-TAGATOSE ([3]; manganese ion 0.007 M): 0.031 M
- O.D. (X - B) ([3]; manganese ion 0.007 M): 0.6678
- D-TAGATOSE ([3]; manganese ion 0.009 M): 0.030 M
- O.D. (X - B) ([3]; manganese ion 0.009 M): 0.6591
- D-TAGATOSE ([3]; manganese ion 0.011 M): 0.032 M
- O.D. (X - B) ([3]; manganese ion 0.011 M): 0.7007
- D-TAGATOSE ([3]; manganese ion 0.013 M): 0.032 M
- O.D. (X - B) ([3]; manganese ion 0.013 M): 0.6851
Structure (SMILES): [Mn+2] [Manganese]

Structure (SMILES): O=C[C@H](O)[C@@H](O)[C@@H](O)CO [L-arabinose, reference compound]
- affinity of the isomerase for the sugar [4]: high affinity
- total activity, Published Data ([4]; substrate as labelled, propagation 24 hours, 37° C.): 525 u/L.
- activity (10 min.), Published Data ([4]; substrate as labelled, propagation 24 hours, 37° C., per g cell mass): 350 u/g.
- Enzyme Activity ([1]; 35° C.): 24.6 u/ml.
- Enzyme Activity ([1]; 60° C.): 68.1 u/ml.
- total activity, Present Invention Data [1]: 4,220 u/L.
- activity (10 min.), Present Invention Data [1]: 425 u/g.

- % Activity with activator (None = 100) [1]: 110%
- D-TAGATOSE ([2]; 0.005 M metallic ion): 0.012 M
- O.D. (X - B) [2, 8]: 0.2544
- D-TAGATOSE ([3]; 0.005 M metallic ion): 0.007 M
- O.D. (X - B) [3, 8]: 0.1596
Structure (SMILES): [Zn+2] [Zinc]

Structure (SMILES): C[C@@H](O)[C@H](O)[C@H](O)[C@@H](O)C=O [D-fucose]
- affinity of the isomerase for the sugar [4]: low affinity

Structure (SMILES): [Ca] [Calcium]
- % Activity with activator (None = 100) [1]: 143%
- D-TAGATOSE ([2]; 0.005 M metallic ion): 0.033 M
- O.D. (X - B) [2, 8]: 0.7107
- D-TAGATOSE ([3]; 0.005 M metallic ion): 0.009 M
- O.D. (X - B) [3, 8]: 0.1802

- % Activity with activator (None = 100) [1]: 141%
- D-TAGATOSE ([2]; 0.005 M metallic ion): 0.036 M
- O.D. (X - B) [2, 8]: 0.7890
- D-TAGATOSE ([3]; 0.005 M metallic ion): 0.005 M
- O.D. (X - B) [3, 8]: 0.1048
Structure (SMILES): [Mg] [Magnesium]

Structure (SMILES): O=C[C@H](O)[C@@H](O)[C@@H](O)[C@H](O)CO [D-galactose]
- activity of L-arabinose isomerase on the sugar ([4]; Nakamatu, Biochim. Biophys. Acta 178): slight
- affinity of the isomerase for the sugar [4]: low affinity
- substrate quality for L-arabinose-L-ribulose-isomerase [5]: slow
- Enzyme Activity ([1]; 35° C.): 0.07 u/ml.
- Enzyme Activity ([1]; 60° C.): 0.90 u/ml.
- Km (D-galactose), as % ([1]; crude enzyme, L. pentosus): 20%
- total activity, Present Invention Data [1]: 395 u/L.
- activity (10 min.), Present Invention Data [1]: 45 u/g.
- L-arabinose isomerase activity ([2]; D-galactose as a substrate, 10 min. incubation): 21 U/g/10 min.
- Km (D-galactose), as % ([2]; crude enzyme, Arthrobacter): 15%
- substrate of the isomerase [6]: not a substrate of the isomerase
- Km (D-galactose), as % ([3]; crude enzyme, B. amylo.): 12%
- maximum solubility in water [7]: about 70 % by weight

Structure (SMILES): [Co+2] [Cobalt]
- % Activity with activator (None = 100) [1]: 200%
- D-TAGATOSE ([2]; 0.005 M metallic ion): 0.050 M
- O.D. (X - B) [2, 8]: 1.0764
- D-TAGATOSE ([3]; 0.005 M metallic ion): 0.005 M
- O.D. (X - B) [3, 8]: 0.0970

- % Activity with activator (None = 100) [1]: 200%
- % Activity over activator range ([1]; range 1 MM-10 MM): 123-250%
- D-TAGATOSE ([2]; 0.005 M metallic ion): 0.037 M
- O.D. (X - B) [2, 8]: 0.8030
- D-TAGATOSE ([3]; 0.005 M metallic ion): 0.020 M
- O.D. (X - B) [3, 8]: 0.4438
Structure (SMILES): [Fe+2] [Ferrous]

Structure (SMILES): [Fe+3] [Ferric]
- D-TAGATOSE ([2]; 0.005 M metallic ion): 0.037 M
- O.D. (X - B) [2, 8]: 0.8003
- D-TAGATOSE ([3]; 0.005 M metallic ion): 0.018 M
- O.D. (X - B) [3, 8]: 0.3817
